IC50 and EC50 data for 10 compounds are collected here from US11478451B1, “Macrocyclic chlorine substituted indole derivatives” (Bayer Aktiengesellschaft, priority 2017, dated 2022).

The subject of series [1] is AMO-1 cells. Description: Antiproliferation assay (CellTiter-Glo, 72 h), AMO-1. The following applies: IC50, median, AMO-1, 72 h, read-out: Antiproli AMO-1 [M] median. Format: cell-based. In a few lines:
(§1)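 Luminescent ATP-based viability (CellTiter-Glo) measured after 72 h of compound treatment at 37 °C. A day 0 plate recorded at time zero served as the starting reference for proliferation.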

In series [2] the test system is SUDHL5 cells. Briefly: Induction of caspase-3/7 activity (Caspase-Glo 3/7), SUDHL5. It counts as cell-based. The following applies: EC50, median, SUDHL5, 3 h treatment. In a few lines:
(§2)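 Steps: seed the diffuse large B-cell lymphoma cells, leaving rim wells unused; add compounds; incubate 3 h at 37 °C; add Caspase-Glo 3/7 reagent; read; subtract medium-only background.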

The subject of series [3] is SUDHL5 cells. Description: Antiproliferation assay (CellTiter-Glo, 72 h), SUDHL5. Format: cell-based. The note with it: IC50, median, SUDHL5, 72 h, read-out: Antiproli SUDHL5 [M] (median). In a few lines:
as §1
(In ATP-based viability assays light output follows the ATP content of the culture.)

In series [4] the test system is SUDHL10 cells. Briefly: Induction of cytotoxicity (CellTiter-Glo, 5 h), SUDHL10. The following applies: SUDHL10, 5 h.
Series [5] deals with HMC-1-8 cells. Briefly: Antiproliferation assay (CellTiter-Glo, 72 h), HMC-1-8. Format: cell-based. The note with it: IC50, median, HMC-1-8, 72 h, read-out: Antiproli HMC-1-8 [M] median. The method, boiled down: as §1
Series [6] relates to SUDHL10 cells. Description: Induction of caspase-3/7 activity (Caspase-Glo 3/7), SUDHL10. Format: cell-based. The following applies: EC50, median, SUDHL10, 3 h treatment. The method, boiled down: as §2
In series [7] the test system is SUDHL5 cells. Description: Induction of cytotoxicity (CellTiter-Glo, 5 h), SUDHL5. The following applies: SUDHL5, 5 h.
[8] abbreviates: read-out: Cytotox SUDHL10 [M] (median), IC50, median.
Setting [9] is: read-out: Cytotox SUDHL5 [M] (median), IC50, median.
Where [10] appears, read: Homo sapiens, SU-DHL10, 5 h, read-out: Cytotox SUDHL10 [M] (median), IC50, median.

Structures are written as SMILES. Counter-ions that a name gives are not always drawn. Like-named read-outs stand apart in the source and are kept apart here.

With `CCc1c2c(nn1C)CCCN(C)CCn1c(C(=O)O)c(CCCOc3cccc4cc(F)ccc34)c3ccc(Cl)c-2c31` (single isomer, unassigned) [Example 116, (+)-4-chloro-3-ethyl-7-{3-[(6-fluoronaphthalen-1-yl)oxy]propyl}-2,12-dimethyl-10,11,12,13,14,15-hexahydro-2H-pyrazolo[3′,4′:8,9][1,4]diazacycloundecino[10,11,1-hi]indole-8-carboxylic acid], the IC50 was 2.1e-07 M in series [1]; 3.4e-07 M in series [3]; 3.4e-07 M in series [4] (setting [8]); 2.3e-06 M in series [5] (72 h); 4.1e-07 M in series [7] (setting [9]). The EC50 in series [2] and in series [6] was 290 nM in each case.

For `CCc1c2c(nn1C)CN(C)CC(F)(F)CCn1c(C(=O)O)c(CCCOc3cccc4cc(F)ccc34)c3ccc(Cl)c-2c31` (single isomer, unassigned) [Example 127, 4-chloro-3-ethyl-12,12-difluoro-7-{3-[(6-fluoronaphthalen-1-yl)oxy]propyl}-2,14-dimethyl-10,11,12,13,14,15-hexahydro-2H-pyrazolo[3′,4′:8,9][1,6]diazacycloundecino[10,11,1-hi]indole-8-carboxylic acid], the IC50 in series [1] is 5.8e-07 M; in series [3], 4.3e-07 M; in series [4] (setting [8]), 3.8e-07 M; in series [5] (72 h), 2.2e-06 M; in series [7] (setting [9]) it was 2.4e-07 M. Also, the results for the EC50 in series [2] and in series [6] were 280 nM and 480 nM, respectively.

For `CCc1c2c(nn1C)COCC1CC1Cn1c(C(=O)O)c(CCCOc3cccc4cc(F)ccc34)c3ccc(Cl)c-2c31` (single isomer, unassigned; (+)) [Example 107], the IC50 in series [1] came out at 5.5e-07 M; in series [3] it was 7.2e-07 M; in series [4] (setting [10]) it was 5.9e-07 M; in series [5] (72 h) it was 2.4e-06 M; in series [7] (setting [9]), 4.6e-07 M. The figures for the EC50 in series [2] and in series [6] were 390 nM and 470 nM, respectively.

Regarding `CCc1c2c(nn1C)CCCCCCn1c(C(=O)O)c(CCCOc3cccc4ccccc34)c3ccc(Cl)c-2c31` (single isomer, unassigned; enantiomer 2) [Example 53, (−) 4-chloro-3-ethyl-2-methyl-7-{3-[(naphthalen-1-yl)oxy]propyl}-10,11,12,13,14,15-hexahydro-2H-pyrazolo[4′,3′:4,5]azacycloundecino[3,2,1-hi]indole-8-carboxylic acid-N-ethylethanamine salt—Enantiomer 2], the IC50 in series [1] is 1.5e-06 M; in series [3] it was 7.4e-07 M; in series [4] (setting [8]) it was 9.7e-07 M; in series [5] (72 h), 6.9e-06 M; in series [7] (setting [9]), 4.8e-07 M. The EC50 (usually the concentration needed to bring the measured effect to its halfway point) turned out to be 660 nM in series [2] and 700 nM in series [6].

For `CCc1c2c(nn1C)COCC1(CCn3c(C(=O)O)c(CCCOc4cccc5ccccc45)c4ccc(Cl)c-2c43)CC1` (single isomer, unassigned; enantiomer 2) [Example 74, (+)-4′-chloro-3′-ethyl-2′-methyl-7′-{3-[(naphthalen-1-yl)oxy]propyl}-2′,10′,11′,15′-tetrahydro-13′H-spiro[cyclopropane-1,12′-pyrazolo[4′,3′:9,10][1,6]oxazacycloundecino[8,7,6-hi]indole]-8′-carboxylic acid-N-ethylethanamine salt (Enantiomer 2)], the IC50 in series [1] (Homo sapiens, AMO1, 72 h) amounted to 1.3e-06 M; in series [3] (Homo sapiens, SU-DHL-5, 72 h), 7.6e-07 M; in series [4] (setting [10]), 4e-07 M; in series [5] (72 h), 9.4e-06 M; in series [7] (Homo sapiens, SU-DHL-5, 5 h, read-out: Cytotox SUDHL5 [M] (median), IC50, median), 4.1e-07 M. In addition, the EC50 in series [2] (Homo sapiens, SU-DHL-5, 3 h) is 140 nM; in series [6] (Homo sapiens, SU-DHL10, 3 h), 570 nM.

As for `CCc1c2c(nn1C)CN(CC(F)F)CCCCn1c(C(=O)O)c(CCCOc3cccc4cc(F)ccc34)c3ccc(Cl)c-2c31` (single isomer, unassigned; enantiomer 2) [Example 76, (−)-4-chloro-14-(2,2-difluoroethyl)-3-ethyl-7-{3-[(6-fluoronaphthalen-1-yl)oxy]propyl}-2-methyl-10,11,12,13,14,15-hexahydro-2H-pyrazolo[3′,4′:8,9][1,6]diazacycloundecino[10,11,1-hi]indole-8-carboxylic acid N-ethylethanamine salt (Enantiomer 2)], the IC50 in series [1] (listed as 076) worked out at 2.4e-07 M; in series [3] (listed as 076), 3.2e-07 M; in series [4] (read-out: Cytotox SUDHL10 [M] (median), IC50, median, listed as 076), 4e-07 M; in series [5] (listed as 076), 4.4e-06 M; in series [7] (read-out: Cytotox SUDHL5 [M] (median), IC50, median, listed as 076), 3e-07 M. The EC50 was determined as 240 nM in series [2] (listed as 076) and 260 nM in series [6] (listed as 076).

In the case of `Cc1c2c(nn1C)COCCC(F)(F)Cn1c(C(=O)O)c(CCCOc3cccc4ccccc34)c3ccc(Cl)c-2c31` [Example 95, 4-chloro-11,11-difluoro-2,3-dimethyl-7-{3-[(naphthalen-1-yl)oxy]propyl}-2,10,11,12,13,15-hexahydropyrazolo[4′,3′:9,10][1,6]oxazacycloundecino[8,7,6-hi]indole-8-carboxylic acid N-ethylethanamine salt], the IC50 in series [1] (Homo sapiens, AMO1, 72 h) was 9.7e-07 M; in series [3] (Homo sapiens, SU-DHL-5, 72 h), 1e-06 M; in series [4] (read-out: Cytotox SUDHL10 [M] (median), IC50, median, listed as 095), 4.5e-07 M; in series [5] (listed as 095) it was 7.2e-06 M; in series [7] (read-out: Cytotox SUDHL5 [M] (median), IC50, median, listed as 095) it was 7.7e-07 M. In addition, the values for the EC50 in series [2] (listed as 095) and in series [6] (listed as 095) were 550 nM and 870 nM, respectively.

In the case of `CCc1c2c(nn1C)COCC(O)CCn1c(C(=O)O)c(CCCOc3cccc4cc(F)ccc34)c3ccc(Cl)c-2c31` (stereo not shown) [Example 99, 4-chloro-3-ethyl-7-{3-[(6-fluoronaphthalen-1-yl)oxy]propyl}-12-hydroxy-2-methyl-2,10,11,12,13,15-hexahydropyrazolo[4′,3′:9,10][1,6]oxazacycloundecino[8,7,6-hi]indole-8-carboxylic acid-N-ethylethanamine salt], the IC50 in series [1] (Homo sapiens, AMO1, 72 h) came to 5.2e-07 M; in series [3] (Homo sapiens, SU-DHL-5, 72 h) it was 2.6e-07 M; in series [4] (setting [8]) it was 2.3e-07 M; in series [5] (72 h) it was 5.9e-06 M; in series [7] (setting [9]) it was 2.7e-07 M. The EC50 in series [2] worked out at 190 nM; in series [6] it was 180 nM.

Consider `CCc1c2c(nn1C)CN(C)CCCn1c(C(=O)O)c(CCCOc3cccc4cc(F)ccc34)c3ccc(Cl)c-2c31` [Example 113, (+)-12-chloro-11-ethyl-1-{3-[(6-fluoronaphthalen-1-yl)oxy]propyl}-7,10-dimethyl-4,5,6,7,8,10-hexahydropyrazolo[3′,4′:7,8][1,5]diazecino[9,10,1-hi]indole-2-carboxylic acid N-ethylethanamine salt], for which the IC50 in series [1] is 3.2e-07 M; in series [3], 2.1e-06 M; in series [4] (setting [8]) it was 6.5e-07 M; in series [5], 3.7e-06 M; in series [7] (setting [9]), 3e-07 M. Moreover, the EC50 in series [2] stood at 270 nM; in series [6], 360 nM.

As to `CCc1c2c(nn1C)CCCN(CC(F)F)CCn1c(C(=O)O)c(CCCOc3cccc4cc(F)ccc34)c3ccc(Cl)c-2c31` [Example 119, (+)-4-chloro-12-(2,2-difluoroethyl)-3-ethyl-7-{3-[(6-fluoronaphthalen-1-yl)oxy]propyl}-2-methyl-10,11,12,13,14,15-hexahydro-2H-pyrazolo[3′,4′:8,9][1,4]diazacycloundecino[10,11,1-hi]indole-8-carboxylic acid N-ethylethanamine salt], the IC50 in series [1] stood at 3.6e-07 M; in series [3] it was 3.1e-07 M; in series [4] (setting [8]), 2.9e-07 M; in series [5] it was 1.3e-06 M; in series [7] (setting [9]), 1.4e-07 M. Besides, the EC50 came out at 110 nM in series [2] and 210 nM in series [6].
